# According to US8841277B2, “Methods for treating non-small cell lung cancer using 5-azacytidine” (Celgene Corporation, priority 2009, dated 2014):
# “Also recorded” adds a separate entry of the source.
# Tests used:
# Format in all cases: cell-based
# H1975 cells = test: Cell viability (CyQuant assay), H1975; conditions: 72 hours; for HillSlope / LogIC50 / IC50: H1975 viability, best-fit value; for EC50 / IC50: Homo sapiens, NCI-H1975; for EC50: H1975, read-out: EC50 of effect on viability
# Method: (§1) Certain NSCLC cell lines (H460, H1299, A549, and H1975) were purchased from American Type Culture Collection (ATCC; Manassas, Va.). The H23NSCLC cell line was obtained from the National Cancer Institute (NCI; Bethesda, Md.). Cell lines were cultured in their respective media, as recommended by ATCC and NCI. AZA was manufactured at Aptuit (Greenwich, Conn.) for Celgene (Summit, N.J.), while DAC was purchased from Sigma-Aldrich (St. Louis, Mo.). In all experiments, cells were seeded 24 hours before drug treatment and incubated at 37° C./5% CO2, For cell viability assays, H460, H1299, A549, H23, and H1975 cells were seeded in triplicate at 1×10^3, 1×10^3, 1×10^3, 4×10^3, and 4×10^3 cells per well, respectively, in 96-well plates, using 200 μL of medium per well. Fresh drug was added every 24 hours by replacing medium with drug-containing medium. For all other assays, cells were seeded at 0.6-1.2×10^5 cells per well, in 6-well plates, using 4 mL of medium per well, with fresh drug added directly to the medium every 24 hours.
# (§2) Cell viability was assessed using the CyQuant assay (Life Technologies Corporation; Carlsbad, Calif.). Fluorescence was measured with a spectrophotometer (Molecular Devices; Sunnyvale, Calif.), and EC50 values were calculated in Prism® version 5.01 (GraphPad Software, Inc.; La Jolla, Calif.), using results from three independent experiments.
# (§3) The six data sets represent calculations of EC50 values from raw data using Prism®. The standard deviation among the three independent experiments was determined at each drug concentration. For some of the cell lines, Prism® was not able to calculate the EC50 for DAC. For those curves that an EC50 was available, the SE (Std. Error) was acceptable (SE of the logEC50 should be less than 0.5), meaning that the standard errors were not too large. The 95% Confidence Intervals for the EC50 were considered as a measure of error.
# DNMT1 [1] = test: DNMT1 protein depletion, H1299; conditions: for DNMT1 protein levels: dose range
# Method: (§4) For western analyses of protein levels, cells were washed with PBS and lysed with RIPA buffer (Cell Signaling Technology, Inc.; Danvers, Mass.) containing 350 mM NaCl and 0.1% SDS. Cell lysates were sonicated with two 5-second bursts under low amplitude (20%) using the Digital Sonic Dismembrator (Thermo Fisher Scientific, Inc.; Waltham, Mass.). Proteins were separated on 4-12% Bis-Tris NuPAGE gels (Life Technologies Corporation) and transferred to nitrocellulose membranes. DNMT1, phos-Histone-H2AX(Ser139), total Histone-H2AX, cleaved-PARP, p21, p53, and alpha-tubulin were detected using the Li-Cor Odyssey imaging system (Li-Cor Biotechnology; Lincoln, Nebr.), following incubation with the appropriate primary and secondary antibodies. The phos-Histone-H2AX(Ser139), cleaved-PARP, and p21 antibodies were from Cell Signaling Technology, Inc. The p53 and total Histone-H2AX (C-20) antibodies were from Santa Cruz Biotechnology, Inc. (Santa Cruz, Calif.). The alpha-tubulin and DNMT1 antibodies were purchased from EMD Chemicals, Inc. (Gibbstown, N.J.) and Abcam, Inc. (Cambridge, Mass.), respectively. The goat anti-Rabbit IRDye 680, goat anti-Mouse IRDye 800CW, and donkey anti-Goat IRDye 800CW secondary antibodies were from Li-Cor Biotechnology.
# (§5) Reduced DNMT1 levels were detected in these cell lines as early as 4 hours after drug treatment (FIG. 17).
# A549 cells [2] = test: Western analysis of DNA damage and apoptosis markers, A549; conditions: for Induction of Histone H2AX phosphorylation (marker of DNA damage) / Induction of PARP cleavage (marker of apoptosis): 0.3-10 μM, 24 h to 72 h (3 days)
# Method: (§6) These studies also examined apoptosis using an assay for PARP cleavage. Cells studied included H460, A549, and H1299 cells.
# as §4
# H1299 cells [3] = test: Apoptosis (AnnexinV-FITC/7-AAD), H1299; conditions: 0.3-10 μM
# Description: (§7) For cell cycle distribution, cells were stained with the NIM-DAPI reagent (Beckman Coulter, Inc.; Fullerton, Calif.). For measurement of early- and late-apoptotic cell populations, cells were stained with AnnexinV-FITC and 7-AAD reagents (Beckman Coulter, Inc.). Samples were processed according to manufacturer's instructions and analyzed on a Cell Lab Quanta MPL flow cytometer (Beckman Coulter, Inc.). […] Data were also collected for untreated cells as control.
# H23 cells = test: Cell viability (CyQuant assay), H23; conditions: 72 hours; for HillSlope / LogIC50 / IC50: H23 viability, best-fit value; for EC50 / IC50: Homo sapiens, NCI-H23; for EC50: H23, read-out: EC50 of effect on viability
# Method: as §1, §2, §3
# DNMT1 [4] = test: DNMT1 protein depletion, H460; conditions: for DNMT1 protein levels: dose range
# Method: as §4, §5
# A549 cells [5] = test: Apoptosis (AnnexinV-FITC/7-AAD), A549; conditions: 0.3-10 μM
# Description: as §7
# H460 cells [6] = test: Apoptosis (AnnexinV-FITC/7-AAD), H460; conditions: 0.3-10 μM
# Description: as §7
# H460 cells [7] = test: Western analysis of DNA damage and apoptosis markers, H460; conditions: for Induction of Histone H2AX phosphorylation / Induction of PARP cleavage: 0.3-10 μM; for Induction of Histone H2AX phosphorylation: 24 h, 48 h, up to 72 hour
# Method: as §6, §4
# H1299 cells [8] = test: Western analysis of DNA damage and apoptosis markers, H1299
# Method: as §6, §4
# [9] = 0.3-10 μM, up to 3 days of treatment
SMILES,HillSlope (H1975 cells),LogIC50 (H1975 cells),EC50 (H1975 cells) [µM],IC50 (H1975 cells) [µM],DNMT1 protein levels (DNMT1 [1]; 20 hours),Induction of Histone H2AX phosphorylation (marker of DNA damage) (A549 cells [2]),Induction of PARP cleavage (marker of apoptosis) (A549 cells [2]),Early- and late-apoptotic cell populations (AnnexinV/7-AAD) (H1299 cells [3]; 48-hour treatment),Early- and late-apoptotic cell populations (AnnexinV/7-AAD) (H1299 cells [3]; 72-hour treatment),HillSlope (H23 cells),LogIC50 (H23 cells),EC50 (H23 cells) [µM],IC50 (H23 cells) [µM],DNMT1 protein levels (DNMT1 [4]; 20 hours),Early- and late-apoptotic cell populations (AnnexinV/7-AAD) (A549 cells [5]; 48-hour treatment),Early- and late-apoptotic cell populations (AnnexinV/7-AAD) (H460 cells [6]; 30-hour treatment),Early- and late-apoptotic cell populations (AnnexinV/7-AAD) (H460 cells [6]; 48-hour treatment),Induction of Histone H2AX phosphorylation (H460 cells [7]),Induction of PARP cleavage (H460 cells [7]; 24 h and 48 h),Induction of Histone H2AX phosphorylation (H1299 cells [8]; [9]),further results
"Nc1ncn([C@H]2C[C@H](O)[C@@H](CO)O2)c(=O)n1 [DAC, 5-aza-2′-deoxycytidine]",−0.2958,2.452,> 25,283,significantly reduced,did not have any effect and not,did not have any effect and not,very slight increase in these cell populations,very slight increase in these cell populations,−0.3790,1.268,18.5,18.5,significantly reduced,very slight increase in these cell populations,very slight increase in these cell populations; also recorded: very slight increase in this cell population,some increase in this cell population,did not have any effect,did not have any effect,did not have any effect,"DNMT1 depletion (DNMT1 [1]; 0.3-10 μM, 48 h (Example 5)): able to cause DNMT1 depletion; Relative potency in reducing DNMT1 levels (DNMT1 [1]; 20 hours): more potent than AZA; p21 expression (A549 cells [2]; 24 h and 48 h): induce; p53 expression (A549 cells [2]; 24 h and 48 h): induce; Induction of Histone H2AX phosphorylation (A549 cells [2]; 6 days of treatment): lack of induction; Induction of PARP cleavage (A549 cells [2]; 6 days of treatment): lack of induction; DNMT1 depletion (DNMT1 [4]; 0.3-10 μM, 24 h and 48 h (Example 5)): able to cause DNMT1 depletion; Relative potency in reducing DNMT1 levels (DNMT1 [4]; 20 hours): equipotent; Early- and late-apoptotic cell populations (AnnexinV/7-AAD) (A549 cells [5]; 72-hour treatment): very slight increase in these cell populations; also recorded: slight increase in early-apoptotic (AnnexinV^+ 7-AAD^−) cells only; p21 expression (H460 cells [7]; 24 h and 48 h, dose-dependent): induce; p53 expression (H460 cells [7]; 24 h and 48 h, dose-dependent): induce; Induction of PARP cleavage (H1299 cells [8]; [9]): did not have any effect; Induction of Histone H2AX phosphorylation (H1299 cells [8]; 6 days of treatment): induced strong; Induction of PARP cleavage (H1299 cells [8]; 6 days of treatment): failed to induce significant"
"Nc1ncn([C@@H]2O[C@H](CO)[C@@H](O)[C@H]2O)c(=O)n1 [AZA, 4-amino-1-β-D-ribofuranosyl-1,3,5-triazin-2(1H)-one]",−0.6352,0.8897,7.8,7.76,significantly reduced,induced,induced,dramatic increase in early-apoptotic (AnnexinV^+ 7-AAD^−) and late-apoptotic (AnnexinV^+ 7-AAD^+) cells,dramatic increase in early-apoptotic (AnnexinV^+ 7-AAD^−) and late-apoptotic (AnnexinV^+ 7-AAD^+) cells,−1.054,1.005,10.1,10.1,significantly reduced,dramatic increase in early-apoptotic (AnnexinV^+ 7-AAD^−) and late-apoptotic (AnnexinV^+ 7-AAD^+) cells,dramatic increase in early-apoptotic (AnnexinV^+7-AAD^−) and late-apoptotic (AnnexinV^+7-AAD^−) cells,dramatic increase in early-apoptotic (AnnexinV^+7-AAD^−) cells,induced,induced,induced,Concentrations affecting Histone H2AX phosphorylation and PARP cleavage (H460 cells [7]): above 1 μM; Concentrations affecting Histone H2AX phosphorylation and PARP cleavage (H1299 cells [8]): above 3 μM; Induction of PARP cleavage (H1299 cells [8]; [9]): induced
